# Patent publication US20030220517A1, “Method for producing ketocarboxylic acid derivatives” (priority 2000, published 2003)
# Experiment: log P determination by HPLC on reversed-phase column (EEC Directive 79/831 Annex V.A8)
# Assay type: physicochemical
# Settings: reversed-phase C18 HPLC column, reversed-phase column (C 18), 43° C., acidic range pH 2.3, 0.1% aqueous phosphoric acid/acetonitrile gradient
# Protocol: The log P values given in the use examples above are determined in accordance with EEC Directive 79/831 Annex V.A8 by HPLC (High Performance Liquid Chromatography) on a reversed-phase column (C 18). Temperature: 43° C. The determination is carried out in the acidic range at pH 2.3 using the mobile phases 0.1% aqueous phosphoric acid and acetonitrile; linear gradient from 10% acetonitrile to 90% acetonitrile. Calibration is carried out using unbranched alkan-2-ones (with 3 to 16 carbon atoms) with known logP values (determination of the logP values by the retention times using linear interpolation between two successive alkanones).
row,chromatographic logP,Structure (SMILES)
1,4.78,"O=C1CCC(c2ccc(-c3ccc(OC(F)(F)F)cc3)cc2)N1C(CCl)c1ccccc1 (centres unmarked) [VIII-1, 1-[2-chloro-1-phenylethyl]-5-[4′-(trifluoromethoxy)-1,1′-biphenyl-4-yl]-2-pyrrolidinone]"
2,2.95,"O=C1CCC(c2ccc(-c3ccc(OC(F)(F)F)cc3)cc2)N1 (centres unmarked) [Example X-1, 5-[4′-(trifluoromethoxy)-1,1′-biphenyl-4-yl]-2-pyrrolidinone]"
3,3.8,"O=C1CCC(c2ccc(-c3ccc(OC(F)(F)F)cc3)cc2)N1C(CO)c1ccccc1 (centres unmarked) [VII-1, 1-[2-hydroxy-1-phenylethyl]-5-[4′-(trifluoromethoxy)-1,1′-biphenyl-4-yl]-2-pyrrolidinone]"
4,4.35,"C=C(c1ccccc1)N1C(=O)CCC1c1ccc(-c2ccc(OC(F)(F)F)cc2)cc1 (centres unmarked) [IX-1, 1-(1-phenylvinyl)-5-[4′-(trifluoromethoxy)-1,1′-biphenyl-4-yl]-2-pyrrolidinone]"
5,4.13,"Fc1cccc(F)c1C1=N[C@@H](c2ccc(-c3ccc(OC(F)(F)F)cc3)cc2)CC1 [Example V-1, (2R)-5-(2,6-difluorophenyl)-2-[4′-(trifluoromethoxy)-1,1′-biphenyl-4-yl]-3,4-dihydro-2H-pyrrole]"

row,Structure (SMILES),chromatographic logP
1,"CC(C)(C)OC(=O)N1C(=O)CCC1c1ccc(-c2ccc(OC(F)(F)F)cc2)cc1 (centres unmarked) [XI-1, tert-butyl 2-oxo-5-[4′-(trifluoromethoxy)-1,1′-biphenyl-4-yl]-1-pyrrolidinecarboxylate]",4.32
2,"CC(C)(C)OC(=O)NC(CCC(=O)c1c(F)cccc1F)c1ccc(-c2ccc(OC(F)(F)F)cc2)cc1 (centres unmarked) [XIII-1, tert-butyl 4-(2,6-difluorophenyl)-4-oxo-1-[4′-(trifluoromethoxy)-1,1′-biphenyl-4-yl]butylcarbamate]",5.18

# Experiment: not given
# Settings: not given
row,melting point [°C],Structure (SMILES)
1,165 to 168,"O=C(O)CCC(=O)c1ccc(-c2ccc3c(c2)OC(F)(F)C(F)(F)O3)cc1 [Example 5, 4-oxo-4-(3′,4′-tetrafluoroethylenedioxo-biphenyl-4-yl)butyric acid]"
